Laboratory results from patent publication EP3375430A1, “FRAGRANCE COMPOSITIONS” (Takasago International Corporation, priority 2017, dated 2018).

Experiment: Amount of fragrance ingredients retained on paper blotter after evaporation (ethanol extraction, GC-MS)
Assay type: physicochemical
Procedure: A fragrance (hereafter fragrance TAK, the formulation of which is shown in table 1) was formulated in a typical Eau de Toilette (EdT1) or in fragrance compositions according to the invention (compositions C1 to C4), as shown in table 2. The amount of individual fragrance ingredients retained on paper substrate (blotter) after set time periods was assessed by the following method.
100µL samples of either EdT1 or compositions C1 to C4 were applied to 4.5cm long standard paper blotters with a microsyringe. Three replicate blotters were prepared for each extraction time. After the appropriate evaporation time each of the 3 blotters was transferred to a 30mL glass bottle. 3mL of ethanol and 50µL of a 1% solution of methyl decanoate in ethanol as an internal standard were added. The bottle was sealed and placed on a roller bed to extract the blotter for 1 hour. A sample of the extracting solution was transferred to a vial which was sealed and analysed by gas chromatography (GC 6890) with a Mass Spectrometer detector (MS 5973) using the method described below. The results of the three replicate measurements were averaged. At exact times the same extraction was repeated on the remaining blotters which were stored on a warm surface at 32°C open to the air to allow evaporation. The gas chromatography conditions were as given below.
• Initial Temp: 50°C • Initial Time: 2 min • Rate: 10°C /min • Final Temp: 280°C • Final Time: 5 min • Run Time: 30 min
• Column: HP-5MS 30m * 0.25mm * 0.25µm • Gas: Helium • Constant Pressure 18.55 psi
• Split mode Ratio 40:1 • Inlet Temp: 250°C
• MS 5973 • Mass range: 35 to 350 • Threshold: 100 • Mass Quad: 150°C • Mass Source: 230°C
To simplify the results the average amount of each fragrance ingredient from the 3 samples measured at time zero was set at 100% and all other measurements were then related to that value so tables 3 to 6 show decreasing amounts of fragrance ingredients as a percentage of the initial amount.
The method of example 1 was repeated using a commercial fragrance (hereafter fragrance COM1, the formulation of which is given in table 7) formulated in a typical Eau de Toilette (EdT2) or in fragrance compositions according to the invention (compositions C5 and C6), as shown in table 8.

[1] = Table 9, fragrance COM1 in C5, T0 + 15 min
[2] = Table 9, fragrance COM1 in C5, T0 + 480 min
[3] = Table 9, fragrance COM1 in C5, T0 +1440 min
[4] = Table 9, fragrance COM1 in C6, T0 + 15 min
[5] = Table 9, fragrance COM1 in C6, T0 + 480 min
[6] = Table 9, fragrance COM1 in C6, T0 +1440 min
[7] = Table 9, fragrance COM1 in EdT2, C5 or C6, T0, set at 100% (normalisation)
[8] = Table 9, fragrance COM1 in EdT2, T0 + 15 min
[9] = Table 9, fragrance COM1 in EdT2, T0 + 480 min
[10] = Table 9, fragrance COM1 in EdT2, T0 +1440 min

Question: With Methyl ionone gamma as the compound, how does the “amount of fragrance ingredient retained on blotter (percentage of the initial amount)” value (“amount … (percentage of the initial amount)” below) [1] read?
Answer: 84.0%

Question: What about the “amount … (percentage of the initial amount)” value [2] of the same compound?
Answer: 32.8%

Question: What about the “amount … (percentage of the initial amount)” value [3] of the same compound?
Answer: 5.68%

Question: And the “amount … (percentage of the initial amount)” value [4]?
Answer: 74.2%

Question: What about the “amount … (percentage of the initial amount)” value [5] of the same compound?
Answer: 23.3%

Question: What about the “amount … (percentage of the initial amount)” value [6] of the same compound?
Answer: 5.2%

Question: What about the “amount … (percentage of the initial amount)” value [7] of the same compound?
Answer: 100%

Question: And the “amount … (percentage of the initial amount)” value [8]?
Answer: 79.2%

Question: What about the “amount … (percentage of the initial amount)” value [9] of the same compound?
Answer: 16.4%

Question: And the “amount … (percentage of the initial amount)” value [10]?
Answer: 3.77%

Question: Which results are given for `O=C1CCCCCCCCCCCC(=O)OCCO1` [Ethylene Brassylate]?
Answer: amount of fragrance ingredient retained on blotter (percentage of the initial amount) (Table 3, fragrance TAK in C1, 15 min, 32°C): 81%; amount of fragrance ingredient retained on blotter (percentage of the initial amount) (Table 3, fragrance TAK in C1, 60 min, 32°C): 79%; amount of fragrance ingredient retained on blotter (percentage of the initial amount) (Table 3, fragrance TAK in C1, 120 min, 32°C): 81%; amount of fragrance ingredient retained on blotter (percentage of the initial amount) (Table 3, fragrance TAK in C1, 240 min, 32°C): 86%; amount of fragrance ingredient retained on blotter (percentage of the initial amount) (Table 3, fragrance TAK in C1, 480 min, 32°C): 79%; amount of fragrance ingredient retained on blotter (percentage of the initial amount) (Table 3, fragrance TAK in EdT1, 15 min, 32°C): 88%; amount of fragrance ingredient retained on blotter (percentage of the initial amount) (Table 3, fragrance TAK in EdT1, 60 min, 32°C): 85%; amount of fragrance ingredient retained on blotter (percentage of the initial amount) (Table 3, fragrance TAK in EdT1, 120 min, 32°C): 90%; amount of fragrance ingredient retained on blotter (percentage of the initial amount) (Table 3, fragrance TAK in EdT1, 240 min, 32°C): 98%; amount of fragrance ingredient retained on blotter (percentage of the initial amount) (Table 3, fragrance TAK in EdT1, 480 min, 32°C): 100%; amount of fragrance ingredient retained on blotter (percentage of the initial amount) (Table 3, fragrance TAK in EdT1 or C1, T0, set at 100% (normalisation)): 100%; amount of fragrance ingredient retained on blotter (percentage of the initial amount) (Table 4, fragrance TAK in C2, 15 min, 32°C): 97%; amount of fragrance ingredient retained on blotter (percentage of the initial amount) (Table 4, fragrance TAK in C2, 480 min, 32°C): 77%; amount of fragrance ingredient retained on blotter (percentage of the initial amount) (Table 4, fragrance TAK in EdT1, 15 min, 32°C): 87%; amount of fragrance ingredient retained on blotter (percentage of the initial amount) (Table 4, fragrance TAK in EdT1, 480 min, 32°C): 73%; amount of fragrance ingredient retained on blotter (percentage of the initial amount) (Table 4, fragrance TAK in EdT1 or C2, T0, set at 100% (normalisation)): 100%; amount of fragrance ingredient retained on blotter (percentage of the initial amount) (Table 5, fragrance TAK in C3, 15 min, 32°C): 80%; amount of fragrance ingredient retained on blotter (percentage of the initial amount) (Table 5, fragrance TAK in C3, 60 min, 32°C): 93%; amount of fragrance ingredient retained on blotter (percentage of the initial amount) (Table 5, fragrance TAK in C3, 120 min, 32°C): 93%; amount of fragrance ingredient retained on blotter (percentage of the initial amount) (Table 5, fragrance TAK in C3, 240 min, 32°C): 100%; amount of fragrance ingredient retained on blotter (percentage of the initial amount) (Table 5, fragrance TAK in C3, 480 min, 32°C): 82%; amount of fragrance ingredient retained on blotter (percentage of the initial amount) (Table 5, fragrance TAK in C3, 1440 min, 32°C): 96%; amount of fragrance ingredient retained on blotter (percentage of the initial amount) (Table 5, fragrance TAK in EdT1, 15 min, 32°C): 88%; amount of fragrance ingredient retained on blotter (percentage of the initial amount) (Table 5, fragrance TAK in EdT1, 60 min, 32°C): 85%; amount of fragrance ingredient retained on blotter (percentage of the initial amount) (Table 5, fragrance TAK in EdT1, 120 min, 32°C): 90%; amount of fragrance ingredient retained on blotter (percentage of the initial amount) (Table 5, fragrance TAK in EdT1, 240 min, 32°C): 98%; amount of fragrance ingredient retained on blotter (percentage of the initial amount) (Table 5, fragrance TAK in EdT1, 480 min, 32°C): 100%; amount of fragrance ingredient retained on blotter (percentage of the initial amount) (Table 5, fragrance TAK in EdT1, 1440 min, 32°C): 85%; amount of fragrance ingredient retained on blotter (percentage of the initial amount) (Table 5, fragrance TAK in EdT1 or C3, T0, set at 100% (normalisation)): 100%; amount of fragrance ingredient retained on blotter (percentage of the initial amount) (Table 6, fragrance TAK in C4, 15 min, 32°C): 100%; amount of fragrance ingredient retained on blotter (percentage of the initial amount) (Table 6, fragrance TAK in C4, 60 min, 32°C): 93%; amount of fragrance ingredient retained on blotter (percentage of the initial amount) (Table 6, fragrance TAK in C4, 120 min, 32°C): 96%; amount of fragrance ingredient retained on blotter (percentage of the initial amount) (Table 6, fragrance TAK in C4, 240 min, 32°C): 100%; amount of fragrance ingredient retained on blotter (percentage of the initial amount) (Table 6, fragrance TAK in C4, 480 min, 32°C): 100%; amount of fragrance ingredient retained on blotter (percentage of the initial amount) (Table 6, fragrance TAK in EdT1, 15 min, 32°C): 88%; amount of fragrance ingredient retained on blotter (percentage of the initial amount) (Table 6, fragrance TAK in EdT1, 60 min, 32°C): 85%; amount of fragrance ingredient retained on blotter (percentage of the initial amount) (Table 6, fragrance TAK in EdT1, 120 min, 32°C): 90%; amount of fragrance ingredient retained on blotter (percentage of the initial amount) (Table 6, fragrance TAK in EdT1, 240 min, 32°C): 98%; amount of fragrance ingredient retained on blotter (percentage of the initial amount) (Table 6, fragrance TAK in EdT1, 480 min, 32°C): 100%; amount of fragrance ingredient retained on blotter (percentage of the initial amount) (Table 6, fragrance TAK in EdT1 or C4, T0, set at 100% (normalisation)): 100%

Question: For `CC(C)(C)c1ccc(CCC=O)cc1` [Bourgeonal™, 3-(4-tert-butylphenyl)propanal], which “amount … (percentage of the initial amount)” value [1] is on record?
Answer: 86%

Question: What about the “amount … (percentage of the initial amount)” value [2] of the same compound?
Answer: 59.8%

Question: What about the “amount … (percentage of the initial amount)” value [3] of the same compound?
Answer: 28.82%

Question: What about the “amount … (percentage of the initial amount)” value [4] of the same compound?
Answer: 75.6%

Question: And the “amount … (percentage of the initial amount)” value [5]?
Answer: 43.6%

Question: What about the “amount … (percentage of the initial amount)” value [6] of the same compound?
Answer: 20.9%

Question: What about the “amount … (percentage of the initial amount)” value [7] of the same compound?
Answer: 100%

Question: And the “amount … (percentage of the initial amount)” value [8]?
Answer: 81.4%

Question: And the “amount … (percentage of the initial amount)” value [9]?
Answer: 43.9%

Question: And the “amount … (percentage of the initial amount)” value [10]?
Answer: 13.42%

Question: For `CC(C=O)Cc1ccc(C(C)C)cc1` (stereo not drawn) [Cyclamen aldehyde], which “amount … (percentage of the initial amount)” value [1] is on record?
Answer: 85.8%

Question: And the “amount … (percentage of the initial amount)” value [2]?
Answer: 45.2%

Question: And the “amount … (percentage of the initial amount)” value [3]?
Answer: 14.71%

Question: And the “amount … (percentage of the initial amount)” value [4]?
Answer: 75.4%

Question: What about the “amount … (percentage of the initial amount)” value [5] of the same compound?
Answer: 33.2%

Question: What about the “amount … (percentage of the initial amount)” value [6] of the same compound?
Answer: 12.0%

Question: And the “amount … (percentage of the initial amount)” value [7]?
Answer: 100%

Question: And the “amount … (percentage of the initial amount)” value [8]?
Answer: 81.5%

Question: And the “amount … (percentage of the initial amount)” value [9]?
Answer: 30.7%

Question: What about the “amount … (percentage of the initial amount)” value [10] of the same compound?
Answer: 7.12%

Question: What does the source list for `CC=CC(=O)C1=C(C)CCCC1(C)C` [Damascone beta]?
Answer: amount of fragrance ingredient retained on blotter (percentage of the initial amount) [1]: 81.9%; amount of fragrance ingredient retained on blotter (percentage of the initial amount) [2]: 20.5%; amount of fragrance ingredient retained on blotter (percentage of the initial amount) [3]: 2.12%; amount of fragrance ingredient retained on blotter (percentage of the initial amount) [4]: 74.8%; amount of fragrance ingredient retained on blotter (percentage of the initial amount) [5]: 14.7%; amount of fragrance ingredient retained on blotter (percentage of the initial amount) [6]: 1.9%; amount of fragrance ingredient retained on blotter (percentage of the initial amount) [7]: 100%; amount of fragrance ingredient retained on blotter (percentage of the initial amount) [8]: 78.2%; amount of fragrance ingredient retained on blotter (percentage of the initial amount) [9]: 10.6%; amount of fragrance ingredient retained on blotter (percentage of the initial amount) [10]: 4.25%

Question: Which results are given for `CC1(C)CCC[C@]2(C)[C@H]3CCO[C@]3(C)CC[C@@H]12` [Ambroxan™, (3aR,5aS,9aS,9bR)-3a,6,6,9a-tetramethyl-2,4,5,5a,7,8,9,9b-octahydro-1H-benzo[e][1]benzofuran]?
Answer: amount of fragrance ingredient retained on blotter (percentage of the initial amount) [1]: 85.4%; amount of fragrance ingredient retained on blotter (percentage of the initial amount) [2]: 68.9%; amount of fragrance ingredient retained on blotter (percentage of the initial amount) [3]: 40.11%; amount of fragrance ingredient retained on blotter (percentage of the initial amount) [4]: 75.6%; amount of fragrance ingredient retained on blotter (percentage of the initial amount) [5]: 52.6%; amount of fragrance ingredient retained on blotter (percentage of the initial amount) [6]: 29.9%; amount of fragrance ingredient retained on blotter (percentage of the initial amount) [7]: 100%; amount of fragrance ingredient retained on blotter (percentage of the initial amount) [8]: 81.5%; amount of fragrance ingredient retained on blotter (percentage of the initial amount) [9]: 56.6%; amount of fragrance ingredient retained on blotter (percentage of the initial amount) [10]: 15.42%
